Assay results: patent US20150306112A1 (National Cheng Kung University, priority 2014, published 2015)

Assays:
C57/BL6 splenocytes = experiment: Splenocyte proliferation by MTS assay; assay type: cell-based, mouse
Method: (§1) FIG. 1. […] After the incubation, cell lysates were assessed by immunoblot. […] In the same condition, cell proliferation was evaluated at 24, 48 and 72 h by MTS assay (lower). […] Data are expressed as the mean±SEM (n=4). **P, 0.01; ***P, 0.001 vs. stimulators-treated groups. Similar results were obtained in at least three independent experiments.
Primary mouse splenocytes were cultured in 96-well plates at a density of 4×10^5 cells/well in 10% FBS RPMI 1640 medium and activated with three different stimulators (Con A: 5 μg/mL; PHA: 2.5 μg/mL; Anti-CD3/CD28: 10/1 μg/mL) at 37° C. in 5% CO2/air. […] The cell proliferation was evaluated by MTS assay with a CellTiter kit (Promega, Madison, Wis.).

STAT3 in RAW264.7 cells = experiment: Immunoblot of IL-6-induced pSTAT3 in RAW264.7 cells; assay type: cell-based
Method: (§2) FIG. 5. […] Cell proliferation was measured by MTS assay. ***P<0.001, **P<0.01, *P<0.05 when compared with the control group. […] Following incubation, proteins were extracted and assessed by immunoblot analysis. Similar results were obtained in at least three independent experiments.
(§3) Cell lysates were analysed by immunoblotting with primary antibodies against pSTAT1, pSTAT3, IRF-1 and β-actin, followed by the appropriate HRP-linked secondary antibodies. Immunoreactive protein bands were detected using an enhanced chemiluminescence (ECL) kit (Pierce Biotechnology, Rockford, Ill.).

pSTAT1 and IRF-1 = experiment: Immunoblot of IFN-γ activated pSTAT1 and IRF-1 in Jurkat, THP-1, HMEC-1 and Chang liver cells; assay type: cell-based, human; details: 2 h and 8 h, ZAA pre-treatment
Method: FIG. 7. IFN-γ-activated STAT1 and induced IRF-1 protein expression in Jurkat, THP-1, Chang liver and HMEC-1 cells. […] After various time periods, cells were harvested, and total protein extracts were prepared for imunoblot analysis using the indicated antibodies. Similar results were obtained in at least three independent experiments.
as §3

[1] = tested on: Con A-induced liver injury; experiment: Con A-induced hepatitis in mice; assay type: in vivo, C57BL/6 mice
Method: FIG. 4. […] (A) Representative microphotographs showing liver and spleen histopathologic changes with hematoxylin-and-eosin-staining (original magnification ×200). (B) The necrosis was analysed with a four-point score: 0, no; 1, 1-20% necrosis; 2, 20-40% necrosis; 3, >40% necrosis. Infiltration of leukocytes was graded on a four-point severity scale: 0, none; 1, little; 2, moderate; 3, mass. (C) Serum ALT and AST activities were measured at 8 h after Con A injection. (D) Serum levels of IFN-γ, IL-6 and IL-4 were measured at 8 h after Con A injection by ELISA. (E) Proteins from liver and spleen tissues of vehicle, ZAA and dexamethasone-treated mice were extracted and subjected to immunoblot. Values are shown as mean±S.E.M. from individual mice (n=10-13 mice/group). ***P<0.001,**P<0.01, *P<0.05 as compared with vehicle-treated mice. Similar results were obtained in at least three independent experiments.
The positive control animals with Con A-induced hepatitis were given the same amount of solvent (0.2% cyclodextrin) i.p., without any drugs. Blood samples were collected from each group for plasma transaminase activities and cytokine expression level determination. Part of the liver and spleen biopsy samples were fixed in 10% formalin, embedded in paraffin for further hematoxylin-eosin staining and the rest of the tissue samples were frozen at −80° C. for further studies.
Liver injury was quantified by determination of alanine aminotransferase (ALT) and aspartate aminotransferase (AST) activities in serum, according to the Reitman-Frankel method.

human JAK3 JH1-JH2 = target: T1, human JAK3 JH1-JH2 (Homo sapiens, UniProt P52333); experiment: Native PAGE antibody competition, JAK3 JH1-JH2; assay type: binding; details: antibody against aa 716-967
T1 construct: incubated with human JAK2 JH1-JH2 and JAK3 JH1-JH2 at 37° C. for 3 h; purchased Life Technologies
T1 sequence (P52333 521-1124): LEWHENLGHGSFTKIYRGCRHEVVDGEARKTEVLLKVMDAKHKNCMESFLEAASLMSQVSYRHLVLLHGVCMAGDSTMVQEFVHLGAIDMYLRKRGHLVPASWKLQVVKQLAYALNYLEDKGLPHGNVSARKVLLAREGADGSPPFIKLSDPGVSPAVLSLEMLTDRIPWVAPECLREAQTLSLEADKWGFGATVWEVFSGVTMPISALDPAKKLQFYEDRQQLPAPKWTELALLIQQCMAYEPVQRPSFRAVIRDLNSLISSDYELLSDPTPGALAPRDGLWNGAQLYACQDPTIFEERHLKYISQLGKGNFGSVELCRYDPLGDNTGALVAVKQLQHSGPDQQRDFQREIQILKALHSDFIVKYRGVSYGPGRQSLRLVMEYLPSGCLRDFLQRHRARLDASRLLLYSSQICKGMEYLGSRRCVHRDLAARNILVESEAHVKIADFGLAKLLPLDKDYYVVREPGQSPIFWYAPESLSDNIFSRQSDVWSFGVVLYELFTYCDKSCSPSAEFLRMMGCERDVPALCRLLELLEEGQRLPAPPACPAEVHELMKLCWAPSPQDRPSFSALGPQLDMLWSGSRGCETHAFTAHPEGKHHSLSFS
Method: Samples were loaded onto native PAGE gels for electrophoresis, and the levels of free JH1-JH2 domain were measured by immunoblotting.

JAK2 = experiment: Immunoblot of JAK2/STAT phosphorylation in Jurkat and THP-1 cells; assay type: cell-based, human; details: ZAA 3 h, cytokine 30 min
Method: (§4) FIG. 3. […] Total cell lysates were examined for the indicated proteins by immunoblotting. (B) Jurkat cells were transfected with p-GAS-Luc plasmids. […] Total cell lysates were harvested, and their luciferase activities were determined and normalised to the total protein. […] Total mRNA was prepared, and the mRNA levels of IRF-1 and SOCS-1 were detected by RT-PCR. GAPDH was used as the reference band. […] Total cell lysates were examined for the indicated proteins by immunoblotting. β-actin was used as internal control. […] Total cell lysates were examined for the indicated proteins by immunoblotting. All data are one of three independent experiments with similar results.
as §3, with “western blot” for “immunoblotting”, “against JAK2, pJAK2, JAK3, pJAK3,” for “against”, “pSTAT5” for “IRF-1”

[2] = tested on: IFN-γ secretion of primary mouse splenocytes; experiment: IFN-γ secretion analysis by ELISA in splenocytes; assay type: cell-based; details: 24 h, concentration-dependent
Method: as §1
Primary mouse splenocytes were plated at 1×10^5 cells/well with 10% FBS RPMI medium in 96-well plates. Four different experimental conditions were tested. […] All experiments were conducted at 37° C. After a total 24 h of incubation, supernatant IFN-γ concentrations were measured by ELISA kit following the manufactures instructions.

[3] = tested on: IRF-1 and SOCS-1 transcription; experiment: RT-PCR of IRF-1 and SOCS-1 mRNA; assay type: cell-based, human; details: Jurkat and THP-1 cells
Method: as §4
Total RNA was extracted using the Trizol reagent according to the manufacturer's instructions. IRF-1, SOCS-1 and glyceraldehyde 3-phosphate GAPDH mRNA expression levels were detected by RT-PCR.

[4] = tested on: STAT1, STAT3 and IRF-1 in splenocytes; experiment: Immunoblot of IFN-γ/pSTAT1 and IL-6/pSTAT3 signaling in splenocytes; assay type: cell-based, mouse
Method: as §1, §3

[5] = tested on: interferon-gamma activated sequence (GAS); experiment: Reporter assay for GAS transactivation activity; assay type: cell-based, human; details: Jurkat cells, IFN-γ 20 ng/mL, luciferase reporter
Method: as §4
The serum-containing medium of logarithmic growth Jurkat cells was replaced with serum-free RPMI, and the cells were transfected with p-GAS-Luc (0.5 μg/mL) plasmids using the Neon Transfection System (Invitrogen). Four hours later, the serum-free medium was replaced with RPMI containing 10% FBS. […] Luciferase reporter activity was measured according to the manufacturer's recommendation.

human JAK2 JH1-JH2 = experiment: Native PAGE antibody competition, JAK2 JH1-JH2; assay type: binding; details: antibody against JAK2 aa 745-955
JAK1 and TYK2 = experiment: Immunoblot of IFN-α/IFN-β-induced STAT1 and JAK1 phosphorylation in Jurkat cells; assay type: cell-based, human
Method: as §4
(§5) As JAK2/STAT3 signaling has a role in human hepatoma HepG2 cell proliferation, JAK2 activation promotes recruitment to the receptor complex of STAT3 and STAT5 [32], and LMO2 expression.

[6] = tested on: BALB/c and C57/BL6 splenocytes; experiment: Mixed lymphocyte reaction assay; assay type: cell-based, mouse; details: 72 h, MTS
Method: as §2
The cell number of total lymphocytes was measured using the CellTiter kit.

[7] = tested on: P-388 murine leukaemia cells; details: cited from earlier work
JAK3 = experiment: Immunoblot of IL-2 induced JAK3/STAT5 phosphorylation in Jurkat and THP-1 cells; assay type: cell-based, human; details: ZAA 3 h, cytokine 30 min
Method: as §4
as §3, with “western blot” for “immunoblotting”, “against JAK2, pJAK2, JAK3, pJAK3,” for “against”, “pSTAT5” for “IRF-1”

[8] = tested on: JAK2, STAT3, STAT5 and LMO2 in HepG2 cells; experiment: Immunoblot of JAK2/STAT3/STAT5/LMO2 in HepG2 cells; assay type: cell-based, human; details: 20 μM, 48 h
Method: as §4, §5

Jurkat cells = experiment: Jurkat cell proliferation by MTS assay and caspase immunoblot; assay type: cell-based, human
IRF-1 in Jurkat cells = experiment: IRF-1 expression by immunoblot in Jurkat cells; assay type: cell-based, human; details: 20 μM, vs vehicle-treated cells
Method: as §1
The increase in cleaved pro-caspase-3 and pro-caspase-8 was also observed at the end of the 24 h ZAA-treatment. […] In other words, ZAA was safe in normal cells, but not in rapidly proliferating cells.

[9] = 20 mg/kg i.p., 8 h after Con A injection

## C=C(CC[C@@H](C)[C@H]1CC[C@H]2C3=C(C(=O)C[C@]12C)[C@@]1(C)CCC(=O)[C@@H](C)[C@@H]1CC3=O)C(C)C(=O)O (some centres unmarked) [ZAA, Zhankuic acid A]
C57/BL6 splenocytes; Con-A, PHA or anti-CD3/CD28-induced splenocytes, concentration-dependent
  stimulator-activated T cell proliferation: significantly inhibited
C57/BL6 splenocytes; no stimulator, up to 20 μM
  proliferation of splenocytes, ZAA alone: did not affect
STAT3 in RAW264.7 cells
  IL-6-induced Tyr705 phosphorylation of STAT3: suppress
pSTAT1 and IRF-1
  IFN-γ activated pSTAT1 and IRF-1: suppressed
[1]; 20 mg/kg i.p. 1 h prior to Con A, 8 h
  extent of liver damage (histopathology): markedly reduce
[1]; 20 mg/kg i.p. pre-treatment
  pathologic grades: necrosis and infiltration of leukocytes: significant preventative effects
[1]; 20 mg/kg i.p., 8 h after Con A
  hepatitis phenotype by ALT and AST serum levels: almost completely recovered
[1]; [9]
  reduction of serum level of IFN-γ: 37%
  reduction of serum level of IL-4: 38%
  reduction of serum level of IL-6: 66%
[1]; 20 mg/kg pre-treatment, immunoblot
  caspase 3 activity and IRF-1 expression in liver and spleen tissues: significantly reduced
Human JAK3 JH1-JH2
  anti-JAK3 antibody recognition of native JH1-JH2 domain: reduced
JAK2
  IFN-γ-induced JAK2/STAT1, IL-6 induced JAK2/STAT1 and JAK2/STAT3, GM-CSF induced JAK2/STAT5 phosphorylation: potently inhibited
[2]
  Con-A-induced IFN-γ secretion: reduced
[3]
  IFN-γ stimulated IRF-1 and SOCS-1 transcription: significantly prevented
[4]; IFN-γ, concentration-dependent
  IRF-1 (downstream of STAT): inhibitory effect
[4]; splenocytes
  IL-6-induced Tyr705 phosphorylation of STAT3: suppress
[4]; splenocytes and Jurkat cells, IFN-γ 30 min
  IFN-γ-induced Tyr701 phosphorylation of STAT1: completely inhibit
[5]
  GAS-mediated transactivation: inhibited
Human JAK2 JH1-JH2
  anti-JAK2 antibody recognition of native JH1-JH2 domain: reduced
JAK1 and TYK2; 20 μM
  JAK1 phosphorylation: not suppressed
JAK1 and TYK2; Jurkat cells, via JAK1 and TYK2
  IFN-α and IFN-β-induced STAT1 phosphorylation: could not inhibit
[6]
  cell proliferation in mixed lymphocytes reaction: inhibitory effect
[7]
  cytotoxic activity: exhibited cytotoxic activity
JAK3
  IL-2 induced JAK3/STAT5 phosphorylation: potently inhibited
[8]
  phosphorylation of JAK2, STAT3 and STAT5, and LMO2 expression: effectively inhibit
Jurkat cells; Jurkat, 24 h ZAA-treatment
  cleaved pro-caspase-3 and pro-caspase-8: increase
Jurkat cells; without or with Con A, MTS
  Jurkat cell proliferation: remarkably inhibited
IRF-1 in Jurkat cells
  IRF-1 expression: suppressed
